Like-named read-outs stand apart in the source and are kept apart here.
Key:
human GRK5WT = molecular target: T1, human GRK5WT (Homo sapiens, UniProt P34947); assay: GRK kinase inhibition assay ([γ-32P]-ATP phosphorylation of tubulin or Rho*); type: biochemical; details: for change in inhibition potency caused by K3Cit: GRK5 phosphorylation of tubulin and Rho*
T1 construct: human GRK5WT or GRK5D311N (residues 1–590 followed by a hexahistidine tag); hexahistidine (C); made in house; host or cells: E. coli Rosetta (DE3)
T1 sequence (P34947 whole entry, the tested form may be a part): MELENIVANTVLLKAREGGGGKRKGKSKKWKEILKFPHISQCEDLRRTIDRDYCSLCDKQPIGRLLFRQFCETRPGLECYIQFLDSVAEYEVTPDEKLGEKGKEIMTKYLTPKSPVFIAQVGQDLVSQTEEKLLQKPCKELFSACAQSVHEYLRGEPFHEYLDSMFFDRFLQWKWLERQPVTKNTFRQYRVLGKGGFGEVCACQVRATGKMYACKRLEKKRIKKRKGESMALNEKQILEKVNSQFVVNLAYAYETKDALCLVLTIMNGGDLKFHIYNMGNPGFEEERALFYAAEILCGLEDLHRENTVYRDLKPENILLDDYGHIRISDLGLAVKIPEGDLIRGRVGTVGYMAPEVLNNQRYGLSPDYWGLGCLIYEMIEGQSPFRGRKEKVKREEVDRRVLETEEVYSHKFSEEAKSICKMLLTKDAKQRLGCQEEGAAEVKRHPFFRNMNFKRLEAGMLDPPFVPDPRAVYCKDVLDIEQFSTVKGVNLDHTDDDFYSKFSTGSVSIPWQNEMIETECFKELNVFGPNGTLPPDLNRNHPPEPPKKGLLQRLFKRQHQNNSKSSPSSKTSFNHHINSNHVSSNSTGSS
Procedure: GRK inhibition assays were performed in 20 mM Hepes (pH 7.0), 2 mM MgCl2, 0.025% n-dodecyl-β-D-maltoside with 50 nM human GRK5WT as purified previously. […] A range of salt concentrations was added 30 s prior to 5 min reactions initiated by exposing samples to light followed by addition of 5 μM ATP supplemented with radioactive [γ-^32P]-ATP at 60 Ci/mmol (PerkinElmer Life Sciences) at room temperature. […] Reactions were quenched with 4X SDS loading buffer, separated in SDS-PAGE, dried, and read by phosphorimaging and then quantified via a Personal Molecular Imager and Quantity One 1-D Analysis Software. […] At least three replicates were obtained to calculate the mean and standard deviation of IC50 values. See Figure S4 for representative raw and processed data.

GRK5 = molecular target: T2, GRK5 (Homo sapiens, UniProt P34947); assay: Differential scanning fluorimetry thermal shift assay; type: binding; details: for increase of Tm of GRK5 upon ligand binding: relative to unliganded GRK5, ligand 5 mM, 2 μM GRK5; for effect of salt on Tm of ATP·Mg2+-bound GRK5 / effect of salt on Tm of GRK5: increasing salt concentrations; for effect of salt on Tm of GRK5: no ligand
T2 construct: human GRK5WT or GRK5D311N (residues 1–590 followed by a hexahistidine tag); hexahistidine (C); made in house; host or cells: E. coli Rosetta (DE3)
T2 sequence (P34947 whole entry, the tested form may be a part): as above
Procedure: Samples were mixed with Protein Thermal Shift dye to measure unfolding as a function of temperature. The Tm values were subtracted by the Tm of GRK5 in the same condition without the addition of salt to obtain ΔTm. Error bars correspond to SD (box) from three or more replicates (circles). […] Orange corresponds to GRK5 with Sgv and pink with AMP in buffer alone (20 mM Hepes [pH 7.2], 2 mM MgCl2). A one-tailed t test was used to determine significance (ns: p > 0.05, ∗p ≤ 0.05, ∗∗p ≤ 0.01, ∗∗∗p ≤ 0.001, and ∗∗∗∗p ≤ 0.0001). GRK, G protein–coupled receptor kinase; ns, not significant; Sgv, sangivamycin.
Full-length WT GRK5, GRK2, or GRK6 at a final concentration of 2 μM in the absence or the presence of different ligands were mixed with the Protein Thermal Shift Dye at a final concentration of 1X in buffer containing 20 mM Hepes (pH 7.2), 2 mM MgCl2, and 1 mM TCEP in addition to different concentrations of salts. The melting points were measured using a QuantStudio5 Real-Time PCR System in a 384-well transparent plate with a final reaction volume of 10 μl per well. […] Ligands including ATP, AMP–PNP, ADP, AMP, and Sgv were added at a final concentration of 5 mM. Readouts were measured and analyzed with Protein Thermal Shift Software to obtain Boltzmann Tm values. At least three replicates of individual runs from the same preparation of protein were performed to obtain the mean and standard deviation of Tm values.

GRK2 = molecular target: T3, GRK2 (Homo sapiens, UniProt P25098, S670A); assay: GRK kinase inhibition assay ([γ-32P]-ATP phosphorylation of tubulin); type: biochemical; details: substrate tubulin; for IC50: mean ± SD
T3 construct: Full-length WT GRK5, GRK2, or GRK6 at a final concentration of 2 μM; made in house; host or cells: Sf9 insect cells
T3 sequence (P25098 1-689 S670A): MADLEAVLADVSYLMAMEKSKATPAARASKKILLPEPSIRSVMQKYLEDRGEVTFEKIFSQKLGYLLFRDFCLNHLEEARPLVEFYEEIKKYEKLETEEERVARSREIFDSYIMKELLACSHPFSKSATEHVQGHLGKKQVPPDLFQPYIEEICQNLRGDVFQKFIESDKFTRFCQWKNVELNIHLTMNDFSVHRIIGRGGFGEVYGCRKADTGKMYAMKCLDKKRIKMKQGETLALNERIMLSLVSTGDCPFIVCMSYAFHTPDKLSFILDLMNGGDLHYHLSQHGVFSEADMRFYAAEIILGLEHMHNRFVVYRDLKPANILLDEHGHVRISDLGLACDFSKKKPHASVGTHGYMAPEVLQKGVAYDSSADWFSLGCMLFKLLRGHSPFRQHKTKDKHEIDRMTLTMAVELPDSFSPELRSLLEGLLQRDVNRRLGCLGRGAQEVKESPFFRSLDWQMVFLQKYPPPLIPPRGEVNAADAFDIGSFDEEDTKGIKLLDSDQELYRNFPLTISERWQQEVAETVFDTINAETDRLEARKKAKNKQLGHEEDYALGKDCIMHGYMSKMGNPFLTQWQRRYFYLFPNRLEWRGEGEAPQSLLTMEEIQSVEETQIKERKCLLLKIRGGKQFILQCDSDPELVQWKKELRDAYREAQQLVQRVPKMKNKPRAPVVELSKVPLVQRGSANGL
Procedure: Following the protocol in Ref. ([19]), pMAL-vector plasmids bearing DNA encoding human GRK5WT or GRK5D311N (residues 1–590 followed by a hexahistidine tag) were transfected into E. coli Rosetta (DE3) and induced with isopropyl β-D-1-thiogalactopyranoside. Cells lysed using an Emulsiflex-C3 were treated with DNase I and 1 mM MgCl2 at room temperature for 10 min before centrifugation at 40,000g. GRK5 in the soluble fraction was then loaded onto a Ni^2+–NTA column for metal-affinity purification. Eluted GRK5 fractions were then loaded onto a tandem HiTrap Q HP-HiTrap SP HP column to capture impurities in the Q HP column, and GRK5 was eluted from the SP column using an NaCl concentration gradient from 100 to 600 mM. […] Purified GRK5 was used directly in crystallization or flash-frozen with liquid nitrogen and stored at −80 °C for later usage. Human GRK2S670A and GRK6FL_pal(−) are expressed in Sf9 insect cells and purified as described previously ([26], [31]). The S670A mutation in GRK2 eliminates a heterogenous mitogen-activated kinase phosphorylation site, and GRK6FL_pal(−) was used to remove palmitoylation sites in order to make expression and purification easier.
GRK inhibition assays were performed in 20 mM Hepes (pH 7.0), 2 mM MgCl2, 0.025% n-dodecyl-β-D-maltoside with 50 nM human GRK5WT as purified previously. […] A range of salt concentrations was added 30 s prior to 5 min reactions initiated by exposing samples to light followed by addition of 5 μM ATP supplemented with radioactive [γ-^32P]-ATP at 60 Ci/mmol (PerkinElmer Life Sciences) at room temperature. […] Reactions were quenched with 4X SDS loading buffer, separated in SDS-PAGE, dried, and read by phosphorimaging and then quantified via a Personal Molecular Imager and Quantity One 1-D Analysis Software. Data were analyzed via GraphPad Prism (GraphPad Software, Inc), and three-parameter dose-dependent curves (Hill coefficient = −1) plotting phosphate transferred against inhibitor concentration were used for the calculation of IC50 values. At least three replicates were obtained to calculate the mean and standard deviation of IC50 values. See Figure S4 for representative raw and processed data.

GRK6 = molecular target: T4, GRK6 (Homo sapiens, UniProt P43250, C561S/C562S/C565S); assay: as above; type: biochemical; details: substrate tubulin; for IC50: mean ± SD
T4 construct: Full-length WT GRK5, GRK2, or GRK6 at a final concentration of 2 μM; made in house; host or cells: Sf9 insect cells
T4 sequence (P43250 whole entry C561S/C562S/C565S): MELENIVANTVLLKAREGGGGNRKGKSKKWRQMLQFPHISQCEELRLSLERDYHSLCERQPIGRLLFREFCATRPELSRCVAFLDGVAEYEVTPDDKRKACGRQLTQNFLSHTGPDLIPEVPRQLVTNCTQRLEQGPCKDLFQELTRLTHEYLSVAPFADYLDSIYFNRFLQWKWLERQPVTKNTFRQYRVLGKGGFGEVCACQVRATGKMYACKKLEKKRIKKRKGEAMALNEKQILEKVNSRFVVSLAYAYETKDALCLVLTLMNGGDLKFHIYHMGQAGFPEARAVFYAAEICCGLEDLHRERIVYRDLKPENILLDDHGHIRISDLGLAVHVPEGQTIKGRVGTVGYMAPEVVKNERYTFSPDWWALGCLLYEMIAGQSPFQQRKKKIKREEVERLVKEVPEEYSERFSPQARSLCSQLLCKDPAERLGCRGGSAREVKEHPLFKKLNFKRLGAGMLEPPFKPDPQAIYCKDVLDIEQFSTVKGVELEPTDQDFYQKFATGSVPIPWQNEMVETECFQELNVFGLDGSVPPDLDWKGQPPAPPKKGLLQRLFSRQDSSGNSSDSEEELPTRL

[1] = IC50 no K3Cit vs with 2 mM K3Cit, substrate tubulin
[2] = IC50 no K3Cit vs with 6 mM K3Cit, substrate Rho* in ROS
[3] = read-out: IC50 (no K3Cit), substrate Rho* in ROS, without K3Cit, mean and SD
[4] = read-out: IC50 (no K3Cit), substrate tubulin, without K3Cit, mean and SD

SMILES	Fold-change (human GRK5WT; [1])	Fold-change (human GRK5WT; [2])	increase of Tm of GRK5 upon ligand binding (GRK5)	GRK2 (Hill slope) (GRK2)	IC50 (GRK2)	GRK6 (Hill slope) (GRK6)	IC50 (GRK6)	effect of salt on Tm of ATP·Mg2+-bound GRK5 (GRK5; in the presence of ATP·Mg2+)	effect of salt on Tm of GRK5 (GRK5)	other results
Nc1ncnc2c1ncn2[C@@H]1O[C@H](COP(=O)(O)OP(=O)(O)O)[C@@H](O)[C@H]1O [ADP]	3	1.5	–	–	–	–	–	–	–	change in inhibition potency caused by K3Cit (human GRK5WT): did not cause changes; IC50 (human GRK5WT; [3]): 56 ± 6 µM; IC50 (human GRK5WT; [4]): 28 ± 1 µM
Nc1ncnc2c1ncn2[C@@H]1O[C@H](COP(=O)(O)O)[C@@H](O)[C@H]1O [AMP]	1.5	2	does not stabilize GRK5 as much as Sgv	–	–	–	–	–	–	change in inhibition potency caused by K3Cit (human GRK5WT): did not cause changes; IC50 (human GRK5WT; [3]): 1000 ± 100 µM; IC50 (human GRK5WT; [4]): 700 ± 200 µM
Nc1ncnc2c1ncn2[C@@H]1O[C@H](COP(=O)(O)OP(=O)([O-])OP(=O)([O-])O)[C@@H](O)[C@H]1O.[Mg+2] [ATP·Mg^2+]	–	–	9 °C	–	–	–	–	–	–	–
O.O=C([O-])CC(O)(CC(=O)[O-])C(=O)[O-].[K+].[K+].[K+] [K3Cit, potassium citrate tribasic monohydrate]	–	–	–	−1.3	800 ± 500 µM	−0.9	900 ± 500 µM	biphasic behavior	raised the Tm of GRK5 proportionally	decrease of Tm of GRK5 (GRK5; in the presence of ATP·Mg2+, 20 mM K3Cit): 2 to 3 °C; effect of salt on Tm of Sgv-bound GRK5 (GRK5; in the presence of Sgv): further increased
[Cl-].[K+] [KCl]	–	–	–	−1.6	20000 ± 2000 µM	−2.3	14000 ± 4000 µM	decreased	did not increase GRK5 stability at any concentration	lower potency than the corresponding citrate salts (human GRK5WT; GRK5, tubulin as the substrate): about 35 fold; GRK5 (Hill slope) (human GRK5WT; substrate Rho* (LMNG)): −1.6; IC50 (human GRK5WT; substrate Rho* (LMNG), mean ± SD, read-out: GRK5 IC50): 11000 ± 2000 µM; GRK5 (Hill slope) (human GRK5WT; substrate Rho* (ROS)): −1.9; IC50 (human GRK5WT; substrate Rho* (ROS), mean ± SD, read-out: GRK5 IC50): 18000 ± 10000 µM; GRK5 (Hill slope) (human GRK5WT; substrate tubulin): −1.7; IC50 (human GRK5WT; substrate tubulin, mean ± SD, read-out: GRK5 IC50): 55000 ± 6000 µM
O=C([O-])CC(O)(CC(=O)[O-])C(=O)[O-].[Na+].[Na+].[Na+] [Na3Cit, sodium citrate]	–	–	–	−1.6	700 ± 200 µM	−1.2	1300 ± 900 µM	–	–	–
[Cl-].[Na+] [NaCl]	–	–	–	−1.2	21000 ± 2000 µM	−1.3	8000 ± 7000 µM	decreased	reduced it	–
NC(=O)c1cn([C@@H]2O[C@H](CO)[C@@H](O)[C@H]2O)c2ncnc(N)c12 [Sgv, sangivamycin]	8	6	5 °C	–	–	–	–	–	–	reduction of the apparent IC50 by K3Cit (human GRK5WT; GRK5 phosphorylation of tubulin, 2 mM K3Cit): eightfold; IC50 (human GRK5WT; IC50 (no K3Cit), substrate Rho* in ROS, without K3Cit, mean and SD): 4.5 ± 0.5 µM; IC50 (human GRK5WT; IC50 (no K3Cit), substrate tubulin, without K3Cit, mean and SD): 11 ± 3 µM; increase of potency of inhibition by K3Cit (human GRK5WT; tubulin and receptor Rho* phosphorylation): ~8 fold

From paper PMC12268638, “Structural insights into the catalytic cycle of G protein–coupled receptor kinase 5 and a possible regulatory site for potassium ion” (The Journal of Biological Chemistry, 2025)
